The text below walks through data of PubChem BioAssay (NCI).

Some test systems named below: 786-0 renal; OVCAR-5 ovarian; T-47D breast; ACHN renal; M14 melanoma; U251 CNS; SF-539 CNS; OVCAR-3 ovarian; NCI-H522 lung; HL-60(TB) leukemia.
What all share (experiment): growth of human tumour cells (NCI), 48 h

Values joined by “and” are separate entries in the source; they are usually repeats but may differ in a detail not shown here. Equal entries are not always repeated.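 Growth conditions: 96-well plates. Treatment: test compound, 48 hours, 5 concentrations. Analysis: linear interpolation between bracketing concentrations; unreached endpoints set to highest concentration. GI50 = concentration required for 50% inhibition of growth. TGI: concentration producing complete growth inhibition.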

With `C[C@@H]1CC[C@H]2C(CN(C)CC3=C(C(F)(F)F)O[C@@H]4O[C@@]5(C)CC[C@H]6[C@H](C)CC[C@@H]3[C@@]46OO5)=C(C(F)(F)F)O[C@@H]3O[C@@]4(C)CC[C@@H]1[C@]32OO4`, the GI50 was 4.03 µM in the assay with 786-0 renal; 0.935 µM in the assay on OVCAR-5 ovarian; 0.236 µM with T-47D breast; 1.81 µM in the assay on ACHN renal; 2.69 µM with M14 melanoma; 0.405 µM in the assay with U251 CNS. Also, the GI50 with SF-539 CNS is 0.488 µM; in the assay with OVCAR-3 ovarian it was 0.419 µM; with NCI-H522 lung it was 2.67 µM. For the same compound, the TGI was 41.7 µM with 786-0 renal; more than 100 µM in the assay on OVCAR-5 ovarian; 39.7 µM in the assay with T-47D breast; 14.9 µM with ACHN renal; more than 100 µM in the assay with M14 melanoma; 22.6 µM in the assay with U251 CNS. Further, the TGI with SF-539 CNS is more than 100 µM; with OVCAR-3 ovarian, 12.1 µM.
Take `Cc1cccc(Cc2cnc(NC(=O)/C=C/c3ccco3)s2)c1`: the GI50 was 0.0598 µM in the assay with 786-0 renal; 0.208 µM with OVCAR-5 ovarian; 0.033 µM with T-47D breast; 0.0281 µM in the assay with HL-60(TB) leukemia; 0.0645 µM with ACHN renal; 0.031 µM in the assay on M14 melanoma. Moreover, the figures for the GI50 with U251 CNS, in the assay with SF-539 CNS and in the assay with OVCAR-3 ovarian were 0.0396 µM, 0.026 µM and 0.0312 µM, respectively. Moreover, the TGI was more than 100 µM in the assay with 786-0 renal; more than 100 µM in the assay with OVCAR-5 ovarian; more than 100 µM in the assay on T-47D breast; 0.0837 µM with HL-60(TB) leukemia; more than 100 µM with ACHN renal; more than 100 µM in the assay with M14 melanoma. Further, the values for the TGI with U251 CNS, with SF-539 CNS and with OVCAR-3 ovarian were more than 100 µM, 0.0752 µM and 0.0914 µM, respectively.
Regarding `COc1ccc(C(=O)C(CN(C)C)c2ccccc2)cc1` (stereo not given), the GI50 in the assay with 786-0 renal is 1.62 µM; with OVCAR-5 ovarian it was 3.82 µM; with T-47D breast, 2.75 µM; with HL-60(TB) leukemia, 5.54 µM; with ACHN renal, 2.11 µM; in the assay on M14 melanoma, 1.68 µM. Besides, the GI50 in the assay with U251 CNS is 4.39 µM; with SF-539 CNS, 5.07 µM; in the assay on OVCAR-3 ovarian, 1.42 µM. Further, the TGI with 786-0 renal was 3.01 µM; with OVCAR-5 ovarian, 10 µM; with T-47D breast, 9.01 µM; with HL-60(TB) leukemia, more than 100 µM; in the assay on ACHN renal, 4.95 µM; in the assay with M14 melanoma it was 3.33 µM. Besides, the TGI turned out to be 14.8 µM with U251 CNS, 16.6 µM in the assay with SF-539 CNS and 2.89 µM in the assay with OVCAR-3 ovarian.
Consider `CCN1CCN(c2nc(NNC(=O)c3cccc(OC)c3)nc(N3CCN(C(c4ccccc4)c4ccccc4)CC3)n2)CC1`, for which the GI50 was 1.84 µM in the assay on 786-0 renal; 2.83 µM with OVCAR-5 ovarian; 2.27 µM with T-47D breast; 1.93 µM in the assay with ACHN renal; 1.67 µM in the assay on M14 melanoma; 1.65 µM with SF-539 CNS. In addition, the GI50 in the assay with OVCAR-3 ovarian is 1.94 µM. Also, the TGI came to 3.58 µM in the assay on 786-0 renal; 9.97 µM in the assay on OVCAR-5 ovarian; 7.18 µM with T-47D breast; 3.77 µM in the assay with ACHN renal; 3.31 µM in the assay with M14 melanoma; 3 µM in the assay with SF-539 CNS. The TGI in the assay on OVCAR-3 ovarian came out at 3.78 µM.
With `Cc1c(-c2ccnc(N)n2)c2c(n1-c1ccccc1)C(=O)c1ccccc1C2=O`, the GI50 in the assay with 786-0 renal is 25.6 µM; in the assay on OVCAR-5 ovarian, 23.4 µM; in the assay with T-47D breast, 51.4 µM; in the assay with HL-60(TB) leukemia, 7.83 µM; in the assay with ACHN renal, 19.6 µM; in the assay with M14 melanoma, 46.8 µM. For the same compound, the GI50 was 18.9 µM in the assay with U251 CNS, 12.3 µM in the assay on OVCAR-3 ovarian and 13.2 µM in the assay on NCI-H522 lung. The TGI with 786-0 renal was more than 100 µM; in the assay on OVCAR-5 ovarian, 97.5 µM; with T-47D breast it was more than 100 µM; with HL-60(TB) leukemia, 30.4 µM; in the assay on ACHN renal it was 77.7 µM; in the assay with M14 melanoma, more than 100 µM. The figures for the TGI in the assay on U251 CNS, with OVCAR-3 ovarian and with NCI-H522 lung were 74.9 µM, 30.6 µM and 37.2 µM, respectively.
As to `C=CCN1C(=O)C/C(=C2/CCC(=O)N2CC=C)C1=O`, the TGI with 786-0 renal, in the assay on OVCAR-5 ovarian, in the assay with HL-60(TB) leukemia, in the assay on ACHN renal, in the assay with M14 melanoma and with U251 CNS was more than 100 µM in each case. In addition, the TGI with SF-539 CNS, in the assay on OVCAR-3 ovarian and with NCI-H522 lung was more than 100 µM each time.
In the case of `CCCCCCCC(=O)O[C@H]1[C@H]2[C@@H](CC1(C)C)C(=O)[C@]13O[C@H]1C(=O)[C@]1(CO1)[C@]23C`, the TGI with 786-0 renal was 14.1 µM; in the assay on OVCAR-5 ovarian it was 28.8 µM and 25.9 µM; in the assay on HL-60(TB) leukemia, 4.57 µM and 2.04 µM; in the assay on ACHN renal, 4.09 µM; with M14 melanoma it was 11.3 µM; in the assay with U251 CNS, 11.9 µM and 22.8 µM. Also, the TGI is 12.7 µM and 21.3 µM in the assay on SF-539 CNS; 4.55 µM and 6.02 µM in the assay with OVCAR-3 ovarian; 2.9 µM and 3.85 µM with NCI-H522 lung. Further, the GI50 in the assay with OVCAR-5 ovarian was 15.3 µM; with HL-60(TB) leukemia it was 0.381 µM; with U251 CNS, 5.8 µM; with SF-539 CNS, 7.72 µM; in the assay on OVCAR-3 ovarian, 2.37 µM.
Take `C/C(CC(=O)Nc1cc(Cl)c(Cl)cc1Cl)=N\NS(=O)(=O)c1ccc(C)cc1`: the TGI in the assay with 786-0 renal is more than 100 µM; in the assay with OVCAR-5 ovarian, more than 100 µM; with HL-60(TB) leukemia it was 62.9 µM; with ACHN renal, 79.8 µM; with M14 melanoma it was 91.4 µM; in the assay on U251 CNS it was more than 100 µM. Moreover, the TGI in the assay on SF-539 CNS was determined as 85.8 µM; with OVCAR-3 ovarian, 74.7 µM; in the assay on NCI-H522 lung, 41.8 µM.
For the compound `O=C1CCC(=O)C(C(=O)CCC(=O)Nc2ccc(Cl)cc2)C1` (stereo not given), the TGI in the assay with 786-0 renal, in the assay on OVCAR-5 ovarian, in the assay on HL-60(TB) leukemia, with ACHN renal, with M14 melanoma and in the assay on U251 CNS was more than 100 µM throughout. Further, the TGI in the assay on SF-539 CNS, with OVCAR-3 ovarian and in the assay with NCI-H522 lung was more than 100 µM each time.
For `NC(=O)COc1ccc(Br)cc1Br`, the TGI in the assay on 786-0 renal, in the assay with OVCAR-5 ovarian, in the assay with HL-60(TB) leukemia, with ACHN renal, in the assay on M14 melanoma and in the assay with U251 CNS was more than 100 µM in each case. Also, the TGI in the assay with SF-539 CNS, with OVCAR-3 ovarian and in the assay on NCI-H522 lung was more than 100 µM throughout.
Regarding `CCN(CC)CCn1nc2c3c(cccc3c1=O)-c1ccccc1-2`, the GI50 is 2.44 µM in the assay on 786-0 renal; 2.3 µM with OVCAR-5 ovarian; 2.06 µM in the assay on T-47D breast; 1.8 µM in the assay on HL-60(TB) leukemia; 2.15 µM in the assay with M14 melanoma; 2.18 µM with U251 CNS. The values for the GI50 with SF-539 CNS, in the assay on OVCAR-3 ovarian and in the assay with NCI-H522 lung were 2.78 µM, 3.78 µM and 2.21 µM, respectively. The TGI was 48.8 µM in the assay with 786-0 renal; more than 50 µM in the assay with OVCAR-5 ovarian; 27 µM in the assay on T-47D breast; 9.22 µM in the assay on HL-60(TB) leukemia; 13.1 µM in the assay on M14 melanoma; 24.7 µM in the assay with U251 CNS. The TGI with SF-539 CNS was found to be 11.7 µM; with OVCAR-3 ovarian, 45.2 µM; in the assay on NCI-H522 lung, 9.84 µM.
Take `O=C(O)c1ccccc1/C=C1/Nc2ccccc2C1=O`: the TGI with 786-0 renal, with OVCAR-5 ovarian, in the assay with T-47D breast, in the assay with HL-60(TB) leukemia, in the assay with ACHN renal and in the assay with M14 melanoma was more than 100 µM in each case. Besides, the TGI in the assay with U251 CNS, in the assay with SF-539 CNS and in the assay on OVCAR-3 ovarian was more than 100 µM each time.
As for `CC1CCCc2c(CC3CC(=O)NC(=O)C3)nc(N)nc21` (stereo not given), the TGI in the assay on 786-0 renal, in the assay on OVCAR-5 ovarian, in the assay on T-47D breast, with HL-60(TB) leukemia, in the assay on M14 melanoma and in the assay with U251 CNS was more than 100 µM each time. Moreover, the TGI in the assay with SF-539 CNS and in the assay with OVCAR-3 ovarian was more than 100 µM in each case.
`CC(C)=CCCC1(C)C=Cc2c(ccc3c2[nH]c2cc(O)c(C)cc23)O1` (stereo not given): the GI50 in the assay with 786-0 renal was 4.27 µM; in the assay with HL-60(TB) leukemia it was 9.48 µM; in the assay with ACHN renal, 6.83 µM; in the assay on M14 melanoma, 3.92 µM; in the assay with U251 CNS it was 4.53 µM; in the assay with SF-539 CNS, 4.59 µM. The GI50 with NCI-H522 lung is 3.87 µM. Moreover, the TGI in the assay with 786-0 renal is 7.87 µM; in the assay on OVCAR-5 ovarian, more than 25 µM; in the assay with HL-60(TB) leukemia it was more than 25 µM; with ACHN renal, 20.2 µM; in the assay on M14 melanoma, 7.44 µM; in the assay with U251 CNS it was 8.03 µM. For the same compound, the TGI in the assay with SF-539 CNS is 9.78 µM; in the assay with OVCAR-3 ovarian, 9.07 µM; with NCI-H522 lung, 7.2 µM.
For the compound `CN(C)/C=C/C(=O)c1cccc(C(=O)/C=C/N(C)C)n1`, the TGI in the assay on 786-0 renal, in the assay with OVCAR-5 ovarian, with HL-60(TB) leukemia, with ACHN renal, in the assay on M14 melanoma and in the assay with U251 CNS was more than 100 µM in each case. Also, the TGI in the assay with SF-539 CNS, in the assay on OVCAR-3 ovarian and with NCI-H522 lung was more than 100 µM throughout.
